Results reported in BindingDB's records for doi:10.1016/s0968-0896(99)00127-3 (Sankyo, 1999).

Target: T1, Dimer of Gag-Pol polyprotein [489-587] (Human immunodeficiency virus 1, UniProt P12497)
T1 construct: 489-587
Experiment: Protease Inhibition Assay
Description: The inhibitory activities of the compounds toward HIV-1 PR were determined by sodium dodecyl sulfate-polyacrylamide gel electrophoresis (SDS-PAGE) assay. The IC50 values of active compounds were determined using the partially purified protease and the synthetic substrate Ac-Ser-Gln-AsnTyr-Pro-Ile-Val-NH2.

SMILES | IC50 [nM]
Cc1cccc(C[C@H](NC(=O)c2c(C)ccc(O)c2C)[C@H](O)C(=O)N2C[C@@H](Cl)C[C@H]2C(=O)NC(C)(C)C)c1 | 3.4
Cc1ccccc1C[C@H](NC(=O)c1cccc(O)c1C)[C@H](O)C(=O)N1C[C@@H](Cl)C[C@H]1C(=O)NC(C)(C)C [(2S,4S)-N-tert-butyl-4-chloro-1-[(2S,3S)-2-hydroxy-3-[(3-hydroxy-2-methylphenyl)formamido]-4-(2-methylphenyl)butanoyl]pyrrolidine-2-carboxamide] | 4.5
Cc1c(O)cc(F)cc1C(=O)N[C@@H](Cc1cccc(C(F)(F)F)c1)[C@H](O)C(=O)N1C[C@@H](Cl)C[C@H]1C(=O)NC(C)(C)C [(5-Fluoro-3-hydroxy-2-methylbenzoyl)-{2(S)-hydroxy-3(S)-amino-4-(3-trifluoromethyl)-phenylbutanoyl}-4(S)-Cl-Pro-NH-t-Bu] | 2.1
Cc1ccc(C[C@H](NC(=O)c2cccc(O)c2C)[C@H](O)C(=O)N2C[C@@H](Cl)C[C@H]2C(=O)NC(C)(C)C)cc1 [(3-Hydroxy-2-methylbenzoyl)-(2(S)-hydroxy-3(S)-amino-4-p-tolylbutanoyl)-4(S)-Cl-Pro-NH-t-Bu] | 0.9
Cc1c(O)cc(F)cc1C(=O)N[C@@H](Cc1ccccc1)[C@H](O)C(=O)N1C[C@@H](Cl)C[C@H]1C(=O)NC(C)(C)C | 1.7
Cc1c(O)cccc1C(=O)N[C@@H](Cc1ccc(F)cc1F)[C@H](O)C(=O)N1C[C@@H](Cl)C[C@H]1C(=O)NC(C)(C)C [(2S,4S)-N-tert-butyl-4-chloro-1-[(2S,3S)-4-(2,4-difluorophenyl)-2-hydroxy-3-[(3-hydroxy-2-methylphenyl)formamido]butanoyl]pyrrolidine-2-carboxamide] | 1.6
Cc1ccc(C(=O)N[C@@H](Cc2ccc(C(F)(F)F)cc2)[C@H](O)C(=O)N2C[C@@H](Cl)C[C@H]2C(=O)NC(C)(C)C)c(C)c1O [(2S,4S)-N-tert-butyl-4-chloro-1-[(2S,3S)-2-hydroxy-3-[(3-hydroxy-2,4-dimethylphenyl)formamido]-4-[4-(trifluoromethyl)phenyl]butanoyl]pyrrolidine-2-carboxamide] | 6.3
Cc1ccc(C(=O)N[C@@H](Cc2cccc(C(F)(F)F)c2)[C@H](O)C(=O)N2C[C@@H](Cl)C[C@H]2C(=O)NC(C)(C)C)c(C)c1O | 3.5
Cc1ccc(O)c(C)c1C(=O)N[C@@H](Cc1cccc(C(F)(F)F)c1)[C@H](O)C(=O)N1C[C@@H](Cl)C[C@H]1C(=O)NC(C)(C)C [(2S,4S)-N-tert-butyl-4-chloro-1-[(2S,3S)-2-hydroxy-3-[(3-hydroxy-2,6-dimethylphenyl)formamido]-4-[3-(trifluoromethyl)phenyl]butanoyl]pyrrolidine-2-carboxamide] | 4.6
Cc1cc(O)c(C)c(C(=O)N[C@@H](Cc2ccc(-c3ccccc3)cc2)[C@H](O)C(=O)N2C[C@@H](Cl)C[C@H]2C(=O)NC(C)(C)C)c1 [(3-Hydroxy-2,5-dimethylbenzoyl)-{2(S)-hydroxy-3(S)-amino-4-(4-phenyl)-phenylbutanoyl}-4(S)-Cl-Pro-NH-t-Bu] | 1.3
Cc1ccccc1C[C@H](NC(=O)c1c(C)ccc(O)c1C)[C@H](O)C(=O)N1C[C@@H](Cl)C[C@H]1C(=O)NC(C)(C)C [(2S,4S)-N-tert-butyl-4-chloro-1-[(2S,3S)-2-hydroxy-3-[(3-hydroxy-2,6-dimethylphenyl)formamido]-4-(2-methylphenyl)butanoyl]pyrrolidine-2-carboxamide] | 34.3
Cc1c(O)cc(F)cc1C(=O)N[C@@H](Cc1ccc2ccccc2c1)[C@H](O)C(=O)N1C[C@@H](Cl)C[C@H]1C(=O)NC(C)(C)C [(2S,4S)-N-tert-butyl-4-chloro-1-[(2S,3S)-3-[(5-fluoro-3-hydroxy-2-methylphenyl)formamido]-2-hydroxy-4-(naphthalen-2-yl)butanoyl]pyrrolidine-2-carboxamide] | 1.2
